Reference: PMC7170299, “Design, synthesis, molecular modelling and biological evaluation of novel 3-(2-naphthyl)-1-phenyl-1H-pyrazole derivatives as potent antioxidants and 15-Lipoxygenase inhibitors” (Journal of Enzyme Inhibition and Medicinal Chemistry, 2020)

What was measured:
[1] = test system: lipid peroxidation (MDA) in liver; experiment: In vivo lipid peroxide level (TBARS/MDA) in liver homogenate; set-up: species or system male Wistar albino rats; details: rat liver; 100 mg/kg orally for 3 days; mean ± SEM, n = 6
Protocol: (§1) The complete progress of the experiment was conducted using male Wistar albino rats (200–250 g), delivered by the Institutional Breeding House, Egypt, reared and maintained in the animal house of the institution. The animals had free access to food and water ad libitum and maintained in a controlled environment under standard conditions of temperature and humidity with an alternating 12 h light and dark cycle for about a week for acclimatization. The protocol of the study was approved by the Animal Ethics Committee of the Faculty of Pharmacy, Helwan University (ethical code number: 05A2019; date: October 2019). The study was conducted in accordance with the EC, directive 86/609/EEC for animal experiments.
(§2) Rats are weighed at the beginning and at the end of experiment. Fifty-four male albino rats (n=6) were divided into nine different groups. Group I served as a control group and treated with the same volume vehicle only. Group II treated with 100 mg/kg of Ascorbic acid as standard antioxidant drug. Groups (III–IX) orally administered 100 mg/kg of compounds 3a, 4e, 5b, 5c, 6a, 6c, 6e, respectively, for 3 days. The animals were sacrificed by cervical dislocation 24 h after the last dose. Sacrificing is carried out at the same time of the day, to avoid the circadian variation in the level of tissue GSH[53]. Each liver was excised, weighed, rinsed in ice-cold normal saline and frozen for not more than 72 h await analysis of endogenous antioxidant status (GSH levels and CAT activity) and lipid peroxide concentrations. For performing biochemical assays, a 10% liver homogenate in 10 mM phosphate buffer was prepared using tissue homogeniser (Glas-Col®, Cat no.099C K6424, TERRE HAUTE, USA).
Lipid peroxidation level in the liver homogenates was determined as thiobarbituric acid reactive substances (TBARS) by measuring malondialdehyde ‘MDA’ level according to Mihara and Uchiyama[56]. Briefly, 0.5 mL supernatant of tissue homogenate was mixed with 0.6% thiobarbituric acid (TBA) and 1% orthophosphoric acid solution, and heated in a boiling water bath for 45 min. The pink-coloured chromogen formed by the reaction of TBA with MDA was extracted by n-butanol and measured at 535 nm. The results were expressed as nmol/g tissue.

[2] = test system: glutathione (GSH) in liver; experiment: In vivo reduced glutathione (GSH) level in liver homogenate; set-up: species or system male Wistar albino rats; details: rat liver, 100 mg/kg orally for 3 days; for GSH: mean ± SEM, n = 6
Protocol: as §1, §2
Levels of glutathione (GSH) in liver homogenates were assayed by the deproteinization of tissue homogenate. Then […] supernatant was mixed with di-potassium hydrogen phosphate buffer (pH 8) and 0.4% 5,5′-dithiobis-2-nitrobenzoic acid (Ellman’s reagent). The yellow-coloured substance formed was measured at 412 nm. The results were expressed as GSH mg/g tissue.

[3] = test system: Catalase (CAT) activity in liver; experiment: In vivo catalase (CAT) activity in liver homogenate; set-up: species or system male Wistar albino rats; details: rat liver, 100 mg/kg orally for 3 days; for CAT: mean ± SEM, n = 6
Protocol: as §1, §2
Catalase activity in 10% liver homogenates was determined spectrophotometrically according to Sinha AK[54]. The decrease in absorbance at 240 nm due to H2O2 decomposition was measured and the results were expressed in U/mg tissue.

[4] = DPPH radical scavenging assay; details: mean ± SEM of three experiments; 30 min, 517 nm
Protocol: The DPPH scavenging activity of all synthesized compounds was measured as previously described by Nahar et al.[48] with some modifications. Briefly, 100 µL of different concentrations of the tested compounds (12.5, 25, 50, 100, and 200 µg/mL) were pipetted into a 96-well plate. Then, 100 µL of 100-µM DPPH methanolic solution were added to each well and the plate was incubated protected from light at room temperature for 30 min. The absorbance of the solution was measured at λ517 nm.[49] Ascorbic acid was used as the positive control while DMSO was the negative control. The percentage of DPPH scavenging activity was calculated according to the following equation: % of DPPH scavenging=[(Acontrol–Asample)/Acontrol] ×100, where Acontrol is the absorbance of the control reaction (with all reagents except the test compound), and Asample is the absorbance of the test sample. […] All tests were performed in triplicates.

[5] = NO scavenging assay (sodium nitroprusside / Griess reagent); details: mean ± SEM of three experiments; 90 min, 546 nm
Protocol: The NO scavenging activity of all synthesized compounds was measured as previously described by Ho et al.[50] Briefly, 50 µL of different concentrations of the tested compounds (12.5, 25, 50,100, and 200 µg/mL) were pipetted into a 96-well plate. Then, 50 µL of 10-mM sodium nitroprussides dissolved in phosphate-buffered saline PBS (pH 7.4) were added to each well and the plate was incubated for 90 min at room temperature. Next, an equal volume of Griess reagent (1% of sulphanilamide and 0.1% of naphthyl ethylene diamine in 2.5% […]) was added to each well to measure the nitrite content. The absorbance of the formed pink-coloured chromophore was measured at λ 546 nm. DMSO and ascorbic acid were used as the negative and positive control, respectively. All tests were performed in triplicate. The percentage of NO scavenging activity was calculated according to the following equation: % of NO scavenging=[(Acontrol−Asample)/Acontrol]×100 where Acontrol is the absorbance of the control reaction (with all reagents except the test compound), and Asample is the absorbance of the test sample.

Compound | TBARS [1] [nmol/g tissue] | Increase in GSH compared to control group [2] | GSH [2] [mg/g tissue] | Increase of CAT enzyme level compared to control group [3] | CAT [3] [U/mg tissue] | DPPH IC50 [4] [µg/mL] | NO IC50 [5] [µg/mL]
Cc1ccc(C2=NOC(c3cn(-c4ccccc4)nc3-c3ccc4ccccc4c3)C2)cc1 (centres unmarked) [Compound 5c, 5-(3-Naphthalen-2-yl-1-phenyl-1H-pyrazol-4-yl)-3-p-tolyl-4,5-dihydroisoxazole] | 0.346 ± 0.01 | ~55% | 10.92 ± 0.96 | ~89% | 45.42 ± 4.30 | 47.27 ± 1.13 | 38.99 ± 1.31
Cc1ccc(C2=NN(C(N)=S)C(c3cn(-c4ccccc4)nc3-c3ccc4ccccc4c3)C2)cc1 (centres unmarked) [Compound 6c, 3′-Naphthalen-2-yl-1′-phenyl-5-p-tolyl-3,4-dihydro-1’H-[3,4′]bipyrazolyl-2-carbo thioic acid amide] | 0.428 ± 0.02 |  | 9.01 ± 0.72 |  | 44.38 ± 2.81 | 18.98 ± 1.73 | 23.79 ± 0.83
NC(=S)N1N=C(c2ccccc2)CC1c1cn(-c2ccccc2)nc1-c1ccc2ccccc2c1 (centres unmarked) [Compound 6a, 3′-Naphthalen-2-yl-5,1′-diphenyl-3,4-dihydro-1’H-[3,4′]bipyrazolyl-2-carbothioic acid amide] | 0.348 ± 0.03 |  | 7.07 ± 0.35 |  | 27.97 ± 3.46 | 20.47 ± 1.43 | 36.37 ± 0.75
c1ccc(C2=NNC(c3cn(-c4ccccc4)nc3-c3ccc4ccccc4c3)C2)cc1 (centres unmarked) [Compound 3a, 3′-Naphthalen-2-yl-5,1′-diphenyl-3,4-dihydro-2H,1’H-[3,4′]bipyrazole] | 0.350 ± 0.05 |  | 7.00 ± 0.27 |  | 36.21 ± 3.49 | 13.99 ± 0.78 | 27.65 ± 1.53
Clc1ccc(C2=NN(c3ccccc3)C(c3cn(-c4ccccc4)nc3-c3ccc4ccccc4c3)C2)cc1Cl (centres unmarked) [Compound 4e, 5-(3,4-Dichlorophenyl)-3′-naphthalen-2-yl-2,1′-diphenyl-3,4-dihydro-2H,1’H-[3,4′]-bipyrazole] | 0.402 ± 0.04 |  | 7.05 ± 0.56 |  | 43.48 ± 4.51 | 19.56 ± 1.06 | 57.01 ± 1.29
COc1ccc(C2=NOC(c3cn(-c4ccccc4)nc3-c3ccc4ccccc4c3)C2)cc1 (centres unmarked) [Compound 5b, 3-(4-Methoxyphenyl)-5-(3-naphthalen-2-yl-1-phenyl-1H-pyrazol-4-yl)-4,5-dihydro isoxazole] | 0.330 ± 0.02 | about 52% | 10.71 ± 0.86 | about 101% | 48.19 ± 1.24 | 46.62 ± 1.63 | 75.53 ± 1.43
NC(=S)N1N=C(c2ccc(Cl)c(Cl)c2)CC1c1cn(-c2ccccc2)nc1-c1ccc2ccccc2c1 (centres unmarked) [Compound 6e] | 0.344 ± 0.05 | ~51% | 10.65 ± 0.97 | ~141% | 57.84 ± 3.50 | 9.66 ± 0.34 | 71.39 ± 1.25
